In PubChem BioAssay (NCI):
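Exposure lasted 48 hours, with cells grown in 96-well plates and compounds tested at five concentrations. TGI denotes the concentration required for complete inhibition of growth.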

Key:
Assay in all cases: NCI anticancer screen, dose series, 48 h
MCF7 breast = test system: MCF7 breast
KM12 colon = test system: KM12 colon
HT29 colon = test system: HT29 colon
UACC-257 melanoma = test system: UACC-257 melanoma
HL-60(TB) leukemia = test system: HL-60(TB) leukemia
IGROV1 ovarian = test system: IGROV1 ovarian
EKVX NSCLC = test system: EKVX NSCLC
SF-268 CNS = test system: SF-268 CNS
SNB-75 CNS = test system: SNB-75 CNS
SK-MEL-28 melanoma = test system: SK-MEL-28 melanoma
PC-3 prostate = test system: PC-3 prostate
HCC-2998 colon = test system: HCC-2998 colon

SMILES: CC1=C[P+](c2ccccc2)(c2ccccc2)c2ccccc2O1
- TGI (MCF7 breast): > 100 µM
- TGI (KM12 colon): 10.8 µM
- TGI (HT29 colon): 15.7 µM
- TGI (UACC-257 melanoma): > 100 µM
- TGI (HL-60(TB) leukemia): 8.76 µM
- TGI (IGROV1 ovarian): 44.9 µM
- TGI (EKVX NSCLC): > 100 µM
- TGI (SF-268 CNS): > 100 µM
- TGI (SNB-75 CNS): > 100 µM
- TGI (SK-MEL-28 melanoma): 62.5 µM
- TGI (PC-3 prostate): 17.1 µM

SMILES: Cc1nc2c(Cl)cc(Cl)cc2c2c1CCO2
- TGI (MCF7 breast): > 100 µM
- TGI (KM12 colon): > 100 µM
- TGI (HT29 colon): > 100 µM
- TGI (UACC-257 melanoma): > 100 µM
- TGI (HL-60(TB) leukemia): > 100 µM
- TGI (HCC-2998 colon): > 100 µM
- TGI (IGROV1 ovarian): > 100 µM
- TGI (EKVX NSCLC): > 100 µM
- TGI (SF-268 CNS): > 100 µM
- TGI (SNB-75 CNS): > 100 µM
- TGI (SK-MEL-28 melanoma): > 100 µM

SMILES: N=C1OC(CN2CCN(c3ccccc3)CC2)CN1C(=O)Nc1ccccc1 (stereo not given)
- TGI (MCF7 breast): > 100 µM
- TGI (KM12 colon): > 100 µM
- TGI (HT29 colon): > 100 µM
- TGI (UACC-257 melanoma): > 100 µM
- TGI (HL-60(TB) leukemia): > 100 µM
- TGI (HCC-2998 colon): > 100 µM
- TGI (IGROV1 ovarian): > 100 µM
- TGI (EKVX NSCLC): > 100 µM
- TGI (SF-268 CNS): > 100 µM
- TGI (SK-MEL-28 melanoma): > 100 µM
- TGI (PC-3 prostate): > 100 µM

SMILES: CCCC(=O)OCC1OC(n2cc(F)c(=O)[nH]c2=O)CC1OC(=O)CCC (stereo not given)
- TGI (MCF7 breast): > 10 µM
- TGI (KM12 colon): > 10 µM
- TGI (HT29 colon): > 10 µM
- TGI (UACC-257 melanoma): > 10 µM
- TGI (HL-60(TB) leukemia): > 10 µM
- TGI (HCC-2998 colon): > 10 µM
- TGI (IGROV1 ovarian): > 10 µM
- TGI (EKVX NSCLC): > 10 µM
- TGI (SF-268 CNS): > 10 µM
- TGI (SK-MEL-28 melanoma): > 10 µM
- TGI (PC-3 prostate): > 10 µM

SMILES: O=C(CC(C(=O)c1ccsc1)c1cccs1)c1ccccc1 (stereo not given)
- TGI (MCF7 breast): > 100 µM
- TGI (KM12 colon): > 100 µM
- TGI (HT29 colon): > 100 µM
- TGI (UACC-257 melanoma): > 100 µM
- TGI (HL-60(TB) leukemia): > 100 µM
- TGI (HCC-2998 colon): > 100 µM
- TGI (IGROV1 ovarian): > 100 µM
- TGI (EKVX NSCLC): > 100 µM
- TGI (SF-268 CNS): > 100 µM
- TGI (SNB-75 CNS): > 100 µM
- TGI (SK-MEL-28 melanoma): > 100 µM

SMILES: C/C(Cc1ccc2c(c1)OCO2)=N\N=c1\sc2ccccc2n1C
- TGI (MCF7 breast): > 100 µM
- TGI (KM12 colon): > 100 µM
- TGI (HT29 colon): > 100 µM
- TGI (UACC-257 melanoma): > 100 µM
- TGI (HL-60(TB) leukemia): > 100 µM
- TGI (HCC-2998 colon): > 100 µM
- TGI (IGROV1 ovarian): > 100 µM
- TGI (EKVX NSCLC): > 100 µM
- TGI (SF-268 CNS): > 100 µM
- TGI (SK-MEL-28 melanoma): > 100 µM
- TGI (PC-3 prostate): > 100 µM

SMILES: O=C(N/N=C\c1ccc(Cl)cc1)Nc1ccc2ccccc2c1
- TGI (MCF7 breast): > 100 µM
- TGI (KM12 colon): > 100 µM
- TGI (HT29 colon): > 100 µM
- TGI (UACC-257 melanoma): > 100 µM
- TGI (HCC-2998 colon): > 100 µM
- TGI (IGROV1 ovarian): > 100 µM
- TGI (EKVX NSCLC): > 100 µM
- TGI (SF-268 CNS): 71.3 µM
- TGI (SNB-75 CNS): 76.8 µM
- TGI (SK-MEL-28 melanoma): > 100 µM
- TGI (PC-3 prostate): > 100 µM

SMILES: O=S1(=O)OCCOS(=O)(=O)C1(F)Cc1ccccc1
- TGI (HT29 colon): > 100 µM
- TGI (HL-60(TB) leukemia): > 100 µM
- TGI (HCC-2998 colon): > 100 µM
- TGI (IGROV1 ovarian): > 100 µM
- TGI (EKVX NSCLC): > 100 µM
- TGI (SF-268 CNS): > 100 µM
- TGI (SNB-75 CNS): > 100 µM
- TGI (SK-MEL-28 melanoma): > 100 µM
- TGI (PC-3 prostate): > 100 µM

SMILES: CC1[C@@]2(O[C@@H]3C=C4C5CCC6Cc7nc8c(nc7C[C@@]6(C)C5C[C@H](O)[C@@]4(C)[C@]13O)CC1CCc3c(cc4c5c3C(O)C[C@H]5[C@@H](C)C3(O4)OC(C)(C)CC3O)[C@]1(C)C8)O[C@@](C)(CO)C[C@@H]2O (stereo not given in full)
- TGI (MCF7 breast): > 3.72 µM
- TGI (KM12 colon): > 3.72 µM
- TGI (HT29 colon): 1.65 µM
- TGI (UACC-257 melanoma): > 3.72 µM
- TGI (HL-60(TB) leukemia): > 3.72 µM
- TGI (HCC-2998 colon): > 3.72 µM
- TGI (IGROV1 ovarian): > 3.72 µM
- TGI (EKVX NSCLC): > 3.72 µM
- TGI (SF-268 CNS): 2.65 µM
- TGI (SNB-75 CNS): 0.372 µM

SMILES: CCN(CC)CCC(=O)/C=C/c1ccc(Cl)c(Cl)c1
- TGI (MCF7 breast): > 10 µM
- TGI (KM12 colon): > 10 µM
- TGI (UACC-257 melanoma): > 10 µM
- TGI (HL-60(TB) leukemia): 1.76 µM
- TGI (HCC-2998 colon): > 10 µM
- TGI (EKVX NSCLC): > 10 µM
- TGI (SF-268 CNS): > 10 µM
- TGI (PC-3 prostate): > 10 µM

SMILES: COc1cc2ncnc(NS(=O)(=O)c3cc4ccccc4s3)c2cc1OC
- TGI (MCF7 breast): > 100 µM
- TGI (KM12 colon): > 100 µM
- TGI (HT29 colon): > 100 µM
- TGI (UACC-257 melanoma): > 100 µM
- TGI (HCC-2998 colon): > 100 µM
- TGI (IGROV1 ovarian): > 100 µM
- TGI (EKVX NSCLC): > 100 µM
- TGI (SF-268 CNS): > 100 µM
- TGI (SNB-75 CNS): > 100 µM
- TGI (PC-3 prostate): > 100 µM

SMILES: Nc1cc(OCC2CCCCC2)nc(N)n1
- TGI (KM12 colon): > 100 µM
- TGI (HT29 colon): > 100 µM
- TGI (UACC-257 melanoma): > 100 µM
- TGI (HL-60(TB) leukemia): > 100 µM
- TGI (HCC-2998 colon): > 100 µM
- TGI (IGROV1 ovarian): > 100 µM
- TGI (EKVX NSCLC): > 100 µM
- TGI (SF-268 CNS): > 100 µM
- TGI (SNB-75 CNS): > 100 µM
- TGI (SK-MEL-28 melanoma): > 100 µM
- TGI (PC-3 prostate): > 100 µM

SMILES: O=C1OC(C(O)CO)C(C(O)CO)OC1=O (stereo not given)
- TGI (MCF7 breast): > 10 µM
- TGI (KM12 colon): > 10 µM
- TGI (HT29 colon): > 10 µM
- TGI (UACC-257 melanoma): > 10 µM
- TGI (HL-60(TB) leukemia): > 10 µM
- TGI (HCC-2998 colon): > 10 µM
- TGI (IGROV1 ovarian): > 10 µM
- TGI (EKVX NSCLC): > 10 µM
- TGI (SF-268 CNS): > 10 µM
- TGI (SK-MEL-28 melanoma): > 10 µM
- TGI (PC-3 prostate): > 10 µM

SMILES: Cc1cccc2c(=O)c3cccc([C@H](C)C(=O)O)c3oc12
- TGI (KM12 colon): > 100 µM
- TGI (HT29 colon): > 100 µM
- TGI (UACC-257 melanoma): > 100 µM
- TGI (HL-60(TB) leukemia): > 100 µM
- TGI (HCC-2998 colon): > 100 µM
- TGI (IGROV1 ovarian): > 100 µM
- TGI (EKVX NSCLC): > 100 µM
- TGI (SF-268 CNS): > 100 µM
- TGI (SK-MEL-28 melanoma): > 100 µM
- TGI (PC-3 prostate): > 100 µM

SMILES: O=c1cc(NNc2ccccc2)[nH]c(=O)[nH]1
- TGI (MCF7 breast): 26.3 µM
- TGI (KM12 colon): 32.8 µM
- TGI (HT29 colon): 39 µM
- TGI (UACC-257 melanoma): 31.7 µM
- TGI (HL-60(TB) leukemia): 64.6 µM
- TGI (HCC-2998 colon): 39.9 µM
- TGI (IGROV1 ovarian): > 100 µM
- TGI (EKVX NSCLC): > 100 µM
- TGI (SF-268 CNS): 99.6 µM
- TGI (SK-MEL-28 melanoma): 23.2 µM
- TGI (PC-3 prostate): 36.3 µM

SMILES: O=C(COc1cc(=O)oc2ccccc12)c1ccccc1
- TGI (MCF7 breast): > 100 µM
- TGI (KM12 colon): > 100 µM
- TGI (HT29 colon): 45.7 µM
- TGI (UACC-257 melanoma): > 100 µM
- TGI (HL-60(TB) leukemia): > 100 µM
- TGI (HCC-2998 colon): > 100 µM
- TGI (IGROV1 ovarian): 76.7 µM
- TGI (EKVX NSCLC): > 100 µM
- TGI (SF-268 CNS): > 100 µM
- TGI (SNB-75 CNS): > 100 µM
- TGI (SK-MEL-28 melanoma): > 100 µM

SMILES: Cc1cc2ncn(CC(=O)O)c2cc1C
- TGI (MCF7 breast): > 100 µM
- TGI (KM12 colon): > 100 µM
- TGI (HT29 colon): > 100 µM
- TGI (UACC-257 melanoma): > 100 µM
- TGI (HL-60(TB) leukemia): > 100 µM
- TGI (IGROV1 ovarian): > 100 µM
- TGI (EKVX NSCLC): > 100 µM
- TGI (SF-268 CNS): > 100 µM
- TGI (SNB-75 CNS): > 100 µM
- TGI (SK-MEL-28 melanoma): > 100 µM
- TGI (PC-3 prostate): > 100 µM

SMILES: O=C1C=C(NCCc2ccc(O)c([N+](=O)[O-])c2)C(=O)c2[nH]cnc21
- TGI (MCF7 breast): 78.1 µM
- TGI (KM12 colon): > 100 µM
- TGI (HT29 colon): > 100 µM
- TGI (UACC-257 melanoma): 38.7 µM
- TGI (HL-60(TB) leukemia): 47.8 µM
- TGI (HCC-2998 colon): > 100 µM
- TGI (IGROV1 ovarian): 54.8 µM
- TGI (EKVX NSCLC): 72.2 µM
- TGI (SK-MEL-28 melanoma): 30.4 µM
- TGI (PC-3 prostate): > 100 µM

SMILES: Nc1cc(CO)cc(Nc2c3ccccc3nc3ccccc23)c1
- TGI (MCF7 breast): 29.5 µM
- TGI (KM12 colon): 29.8 µM
- TGI (HT29 colon): 28.8 µM
- TGI (UACC-257 melanoma): 28.5 µM
- TGI (HL-60(TB) leukemia): > 100 µM
- TGI (IGROV1 ovarian): 31.3 µM
- TGI (EKVX NSCLC): 31.8 µM
- TGI (SF-268 CNS): 60 µM
- TGI (SNB-75 CNS): 34.5 µM
- TGI (SK-MEL-28 melanoma): 32 µM
- TGI (PC-3 prostate): 36 µM
